Laboratory results reported in patent US20250127790A1, “COMBINATION THERAPY USING VPS34 INHIBITORS” (Deciphera Pharmaceuticals, LLC, priority 2021, published 2025).

Columns and labels:
[1] = test system: THP-1 dual reporter cells; assay: Cytokine secretion in wild-type and STING knockout THP-1 dual reporter cells; format: cell-based, human; settings: wild-type THP-1 dual reporter cells
[2] = test system: 786-O renal cell carcinoma cells; assay: Cytokine secretion assay (MSD) with siRNA knockdown, 786-O cells; format: cell-based, human; settings: 24 h; for CCL5 and CXCL10 secretion with siRNA knockdown of CGAS: siCGAS; for CCL5 and CXCL10 secretion with siRNA knockdown of CGAS / increase in CCL5 protein secretion / increase in CXCL10 protein secretion / CCL5 and CXCL10 protein secretion with siRNA knockdown of STING: 2 μM; for CCL5 and CXCL10 secretion with siRNA knockdown of CGAS / CCL5 and CXCL10 protein secretion with siRNA knockdown of STING / secretion of CCL5 or CXCL10 with siRNA knockdown of TBK1: vs compound alone; for increase in CCL5 protein secretion / increase in CXCL10 protein secretion: siRNA against non-specific controls (siSCR); for CCL5 and CXCL10 protein secretion with siRNA knockdown of STING: siSTING; for secretion of CCL5 or CXCL10 with siRNA knockdown of TBK1: siTBK1, 2 μM
Procedure: 786-O cells were transfected with scrambled siRNA control (siSCR) or siRNA targeting TBK1 (siTBK1), STING (siSTING) or CGAS (siCGAS). After 48 h cells were treated with DMSO or 2 μM of VPS34 inhibitor (Compound 1 or Compound 2) for 24 h. Cell culture medium was centrifuged at 1600 rpm for 10 min at 4° C. and obtained supernatant stored at −80° C. Cytokine levels were quantified using following Meso Scale Discovery (MSD) assays: human R-PLEX RANTES/CCL5 (#F21ZN), U-PLEX CXCL10/IP-10 (#K151UFK). Assays were run on the SECTOR Quickplex Imager and analyzed using Discovery Workbench version 4.0 (MSD).

[3] = test system: A-498 renal cell carcinoma cells; assay: Western blot, STING pathway proteins with siRNA knockdown, A-498 cells; format: cell-based; settings: 24 h; for CGAS level / STING level / p-IRF3 level / p-STAT1 level / p-TKB1 level / p-IRF3 and p-STAT1 levels with siRNA knockdown of CGAS / p-TKB1 level with siRNA knockdown of CGAS / p-IRF3 and p-STAT1 levels with siRNA knockdown of STING / p-TBK1 level with siRNA knockdown of STING: 2 μM; for CGAS level / STING level / p-IRF3 level / p-STAT1 level / p-TKB1 level: vs DMSO alone; for p-IRF3 and p-STAT1 levels with siRNA knockdown of CGAS / p-TKB1 level with siRNA knockdown of CGAS: siCGAS; for p-IRF3 and p-STAT1 levels with siRNA knockdown of CGAS / p-TKB1 level with siRNA knockdown of CGAS / p-IRF3 and p-STAT1 levels with siRNA knockdown of STING / p-TBK1 level with siRNA knockdown of STING: vs compound alone; for p-IRF3 and p-STAT1 levels with siRNA knockdown of STING / p-TBK1 level with siRNA knockdown of STING: siSTING; for STING level with siRNA knockdown of TBK1 / CGAS level with siRNA knockdown of TBK1: siTBK1, 2 μM; for CGAS level with siRNA knockdown of TBK1: vs DMSO
Procedure: A-498 cells were transfected with scrambled siRNA control (siSCR) or siRNA targeting TBK1 (siTBK1), STING (siSTING) or CGAS (siCGAS). After 48 h cells were treated with DMSO or 2 μM of VPS34 inhibitor (Compound 1 or Compound 2) for 24 h. A-498 cells were washed in PBS and lysed in RIPA buffer (50 mM Tris HCl pH=7.4, 150 mM NaCl, 1% Triton X-100, 0.5% Na-deoxycholate, 0.1% SDS) containing protease inhibitor cocktail (#11836170001, Roche), and phosphatase inhibitor (#11836170001, Roche) for 10 min at 4° C. After centrifugation at 15000 rpm for 10 min at 4° C., the supernatant was obtained, and protein concentration was quantified using BCA assay (#23225, Thermo Fisher). Equal amounts were mixed with 0.1 M DTT and LDS Sample Buffer (#84788, Thermo Fisher), heated for 5 min at 90° C. before loading onto 4-12% Bis-Tris gels. Proteins were transferred to nitrocellulose membranes. Membranes were blocked in 5% non-fat dry milk in TBS with 0.05% Tween (TBS-T) for 1 h at RT, washed in TBS-T, and probed with primary antibodies shaking overnight at 4° C. After washing in TBS-T, membranes were incubated with IRDye 800CW goat anti-rabbit or IRDye 680RD donkey anti-mouse IgG (H+L) (#926-32211 and #926-68072, respectively, LI-COR, 1:10,000 dilution) secondary antibody in Intercept blocking buffer (#927-60001, LI-COR) for 1 h at RT. After washing in TBS-T, membranes were imaged using the Odyssey CLx (LI-COR). Band intensities were quantified using Image Studio Lite software version 5.2.5 (LI-COR).

[4] = test system: 786-O renal cell carcinoma cells; assay: qRT-PCR with siRNA knockdown of STING pathway genes, 786-O cells; format: cell-based, Human; settings: 2 μM, 24 h
Procedure: (§1) Quantitative reverse-transcriptase polymerase chain reaction (RT-PCR) assay 786-O cells were grown in RPMI-1640 medium containing 10% fetal bovine serum. Cells were then incubated for 2 days at 37 degrees Celsius, 5% CO2, and 95% humidity. A498 cells were transfected with scrambled siRNA control (siSCR) or siRNA targeting TBK1 (siTBK1), STING (siSTING) or CGAS (siCGAS). After 48 h cells were treated with DMSO or 2 μM of VPS34 inhibitor (Compound 1 or Compound 2) for 24 h. Cells were washed with PBS and RNA was isolated using the PureLink RNA kit (#12183018A, Thermo Fisher Scientific) according to the manufacturer's protocol. Genomic DNA was removed using DNA-binding columns (RNeasy plus kit, #74134, Qiagen) and/or DNase treatment (#12185010, Thermo Fisher Scientific). RNA was quantified using NanoDrop (Thermo Fisher Scientific) and 50 ng/μL RNA was used for cDNA synthesis with SuperScript IV VILO Master Mix (#11756050, Thermo Fisher Scientific). Quantitative RT-PCR (qRT-PCR) was run with diluted cDNA (1:25 or 1:12.5), PowerUp SYBR Green Master Mix (#A25741, Thermo Fisher Scientific), and 200 nM primers (see below) on a CFX Connect RT-PCR system (BioRad). Data was analyzed using the ΔΔCT method. Results are mean±SEM of three independent experiments.

Me30966 melanoma cells = assay: qRT-PCR with siSTING, Me30966 cells; format: cell-based, Human; settings: 2 μM, 24 h; for increase in CCL5 mRNA expression / increase in CXCL10 mRNA expression / increase in IFNB1 mRNA expression: siSCR
Procedure: as §1, with “Me30966 cells” for “Quantitative reverse-transcriptase polymerase chain reaction (RT-PCR) assay 786-O cells were grown in RPMI-1640 medium containing 10% fetal bovine serum. Cells were then incubated for 2 days at 37 degrees Celsius, 5% CO2, and 95% humidity. A498 cells”, “with siSCR” for “with scrambled siRNA control (siSCR)”, “or siSTING.” for “or siRNA targeting TBK1 (siTBK1), STING (siSTING) or CGAS (siCGAS).”, “48 h,” for “48 h”, “VPS34 inhibitors” for “VPS34 inhibitor”

Compound | CCL5 and CXCL10 secretion with siRNA knockdown of CGAS [2] | increase in CCL5 protein secretion [2] | increase in CXCL10 protein secretion [2] | CCL5 and CXCL10 protein secretion with siRNA knockdown of STING [2] | secretion of CCL5 or CXCL10 with siRNA knockdown of TBK1 [2] | CGAS level [3] | STING level [3] | p-IRF3 level [3] | p-STAT1 level [3] | p-TKB1 level [3] | p-IRF3 and p-STAT1 levels with siRNA knockdown of CGAS [3] | p-TKB1 level with siRNA knockdown of CGAS [3] | p-IRF3 and p-STAT1 levels with siRNA knockdown of STING [3] | p-TBK1 level with siRNA knockdown of STING [3] | STING level with siRNA knockdown of TBK1 [3] | CGAS level with siRNA knockdown of TBK1 [3] | increase in mRNA expression of CCL5 [4] | increase in mRNA expression of CXCL10 [4] | increase in mRNA expression of IFNB1 [4] | increase in mRNA expression of IRF7 [4] | further results
Nc1ncnc2c1ncn2[C@@H]1O[C@@H]2COP(=O)([S-])O[C@@H]3[C@H](O)[C@@H](COP([O-])(=S)O[C@H]2[C@H]1O)O[C@H]3n1cnc2c(N)ncnc21.[Na+].[Na+] (stereo partly shown) [ADU-S100, reference compound] |  |  |  |  |  |  |  |  |  |  |  |  |  |  |  |  |  |  |  |  | secretion of CCL5 [1]: stimulates; secretion of CXCL10 [1]: stimulates; secretion of IFNβ [1]: stimulates
C[C@@H]1COCCN1c1cc(N2CCCC[C@@H]2C(F)(F)F)[nH]c(=O)c1 [Compound 1, 4-((R)-3-methylmorpholino)-6-((R)-2-(trifluoromethyl)piperidin-1-yl)pyridin-2(1H)-one] | near complete ablation | ~2 fold | ~2 fold | near complete ablation | decreased secretion | mild increase | increase | strong increases | strong increases | increase | complete loss | decrease | complete loss | decrease | increase | increase | > 3 fold | ~5 fold | > 5 fold | > 2 fold | increase in CCL5 mRNA expression (Me30966 melanoma cells): ~10 fold; increase in CXCL10 mRNA expression (Me30966 melanoma cells): ~10 fold; increase in IFNB1 mRNA expression (Me30966 melanoma cells): ~5 fold; CCL5 mRNA increase with siSTING (Me30966 melanoma cells): abolished; CXCL10 mRNA increase with siSTING (Me30966 melanoma cells): abolished; IFNB1 mRNA increase with siSTING (Me30966 melanoma cells): abolished
C[C@@H]1COCCN1c1cc(=O)n2c(n1)N(Cc1cncc(Cl)c1)[C@H](C(F)(F)F)CC2 [Compound 2, (S)-9-((5-chloropyridin-3-yl)methyl)-2-((R)-3-methylmorpholino)-8-(trifluoromethyl)-6,7,8,9-tetrahydro-4H-pyrimido[1,2-a]pyrimidin-4-one] | near complete ablation | ~2 fold | ~2 fold | near complete ablation | decreased secretion | mild increase | increase | strong increases | strong increases | increase | complete loss | decrease | complete loss | decrease | increase | increase | ~4 fold | ~5 fold | ~4 fold | ~3 fold | increase in CCL5 mRNA expression (Me30966 melanoma cells): ~10 fold; increase in CXCL10 mRNA expression (Me30966 melanoma cells): ~10 fold; increase in IFNB1 mRNA expression (Me30966 melanoma cells): ~5 fold; CCL5 mRNA increase with siSTING (Me30966 melanoma cells): abolished; CXCL10 mRNA increase with siSTING (Me30966 melanoma cells): abolished; IFNB1 mRNA increase with siSTING (Me30966 melanoma cells): abolished
